Data on four compounds can be found in PMC9774446, “Antifungal and Anti-Inflammatory Activities of PS1-2 Peptide against Fluconazole-Resistant Candida albicans” (Antibiotics, 2022).

In brackets after ≈: the same amount, converted by molar mass. Where two headings read alike, the source gives them in different places. No end group written: not given here.

Data set [1] relates to Candida albicans CCARM 14007 (fluconazole-resistant strain). Description: microbe, parasite or virus in culture. The class given is cell-based. The source says:
[…] The lowest drug concentration at which no more than one colony was visible on the agar plate, was defined as a minimum fungicidal concentration (MFC).

A further data set has as its system C. albicans KCTC 7270. Description: Drug-resistance assay (MFC over six passages). The class given is cell-based. The settings on record: Candida albicans. The method, then:
To investigate the induction of drug resistance, C. albicans KCTC 7270 cells were prepared as for antifungal assay described above, at concentrations ranging from 1 to 128 μM. After 24 h incubation, MFCs were determined by the above method, and the surviving cells at half MFCs of each sample were treated with the diluted samples, repeating the process six times.

The subject of data set [2] is RAW 264.7 cells stimulated with C. albicans CCARM 14007. Description: Anti-inflammatory assay in co-culture of RAW 264.7 and C. albicans. The class given is cell-based, murine. The settings on record: fluconazole 128 µM or PS1-2 32 µM, 24 h. The method, then:
RAW 264.7 cells were cultured in DMEM supplemented with 10% FBS, 1% penicillin/streptomycin, and GlutaMax at 5% CO2 at 37 °C. The RAW 264.7 cells (2 × 10^5 cells/mL) suspended with RPMI-1640 medium were seeded into 12-well plates and incubated for 24 h. […] After 24 h incubation, cells were washed and harvested in PBS. A total of 1000 µL of blocking solution (5% bovine serum albumin with PBS) was added to each sample, incubated at 25 °C for 30 min, removed by centrifugation at 1000× g, and then incubated with the primary antibody (anti-TLR2, or anti-TNF-α; Abcam, Cambridge, UK, 1:200 dilution) for 1 h. The cells were washed with PBS and incubated with a secondary antibody (fluorescein isothiocyanate-conjugated goat anti-mouse IgG, 1:500 dilution; Santa Cruz Biotechnology) for 1 h. Cells expressing TLR2 were measured using an Attune NxT acoustic focusing cytometer. TNF-α expression was visualized using a confocal laser-scanning microscope (CLSM, A1R HD 25, Nikon, Tokyo, Japan).

Data set [3] deals with C. albicans CCARM 14007-infected mouse lung. The class given is in vivo, BALB/c mice. The text has this: Animal study was approved by the Institutional Animal Care and Use Committee (IACUC) in Sunchon National University, South Korea (SCNU IACUC-2019-10). […] The mice anesthetized by inhalation of isoflurane (5%: induction, 2%: maintenance) in pure oxygen were intratracheally instilled with C. albicans cells. One hour after exposure, each peptide sample was intratracheally administered at the indicated dose, and the mice were monitored for signs of morbidity for 6 days. The lungs of mice euthanized by CO2 inhalation were excised and fixed in 4% paraformaldehyde. The fixed tissues were dehydrated using a series of ethanol solutions (50–100%) and embedded in paraffin. Paraffin-embedded tissues were sectioned at a thickness of 5 µm (Leica microtome, Deerfield, IL, USA), and the histopathology of the lung tissues was performed using alcian blue without/with eosin, and hematoxylin and eosin (H&E) staining.
TNF-α and NO production levels in blood collected from mouse hearts were determined using mouse anti-TNF-α microplate ELISA kit (R&D Systems, Minneapolis, MN, USA) and Griess reagent kit (Invitrogen, Carlsbad, CA, USA), respectively, followed by the manufacturer’s instructions.

The conditions of data set [4]: cited from earlier work. The method, then: Alterations in the killing kinetic pattern under low salt (SP) and high salt (PBS) conditions can predict the interaction and mode of action of peptides on yeast. Because propidium (PI) dye can stain the live cells only temporarily, it will be released ... || To investigate the proteolytic stability of the peptides, the peptide solutions were pre-treated with trypsin for 40 min and added to C. albicans cells. After 24 h of incubation, cells were spread on agar plates (Figure 4).

The test system of another data set is C. albicans CCARM 14007. The settings on record: CCARM 14007, pH 7.2. The method, then:
C. albicans CCARM 14007 cells grown to the mid-log phase at 28 °C were suspended in 10 mM sodium phosphate (pH 7.2) buffer or PBS (pH 7.2) buffer with 10% YPD media at a density of 5 × 10^5 cells/mL. […] The cells were analyzed by fluorescence-activated cell sorting (FACS) system (Attune NxT acoustic focusing cytometer).

By MFC is commonly meant the smallest concentration meeting the test's criterion for killing the fungus. Take `OC(Cn1cncn1)(Cn1cncn1)c1ccc(F)cc1F` [Fluconazole, fluconazole]: the MFC is more than 128 µM in data set [1] (28 °C, 6 mM CaCl2 (pH 5.5), 24 h); more than 128 µM in data set [1] (28 °C, 6 mM MgCl2 (pH 5.5), 24 h); more than 128 µM in data set [1] (28 °C, 24 mM KCl (pH 5.5), 24 h); more than 128 µM in data set [1] (28 °C, pH 5.5, 10 mM sodium phosphate buffer containing 10% media, 24 h); more than 128 µM in data set [1] (28 °C, pH 6.0, 10 mM sodium phosphate buffer containing 10% media, 24 h); more than 128 µM in data set [1] (28 °C, pH 7.2, 10 mM sodium phosphate buffer containing 10% media, 24 h). Besides, the minimal fungicidal concentration (MFC) in data set [1] (37 °C, 6 mM CaCl2 (pH 5.5), 24 h) is more than 128 µM; in data set [1] (37 °C, 6 mM MgCl2 (pH 5.5), 24 h) it was more than 128 µM; in data set [1] (37 °C, 24 mM KCl (pH 5.5), 24 h) it was more than 128 µM; in data set [1] (37 °C, 150 mM NaCl (pH 5.5), 24 h), more than 128 µM; in data set [1] (37 °C, pH 5.5, 10 mM sodium phosphate buffer containing 10% media, 24 h) it was more than 128 µM; in data set [1] (Candida albicans, CCARM14007, 24 h, pH 5.5), more than 128 µM. In addition, the MFC is more than 128 µM in data set [1] (Candida albicans, CCARM14007, 24 h, pH 6); more than 128 µM in data set [1] (Candida albicans, CCARM14007, 24 h, pH 7.2); 2050 µM (≈ 627 µg/mL) in the data set on C. albicans KCTC 7270 (KCTC7270, read-out: MFC after six passages, 28 °C, surviving cells at half MFC re-treated each passage); 4100 µM (≈ 1250 µg/mL) in the data set on C. albicans KCTC 7270 (KCTC7270, read-out: MFC after six passages, 37 °C, surviving cells at half MFC re-treated each passage); 128 µM (≈ 39.2 µg/mL) in the data set with C. albicans KCTC 7270 (KCTC7270, read-out: MFC at first passage, 28 °C, drug-sensitive C. albicans KCTC 7270); 128 µM (≈ 39.2 µg/mL) in the data set on C. albicans KCTC 7270 (KCTC7270, read-out: MFC at first passage, 37 °C, drug-sensitive C. albicans KCTC 7270). Besides, the “TNF-α expression (in words)” value in data set [2] (CLSM) is “Overexpression of TNF-α”. Besides, in data set [2] (with C. albicans), the “macrophage morphology (in words)” value is “Lamellipodia extension and spreading of cells”. In addition, in data set [3] (C. albicans-infected mice, 2 mg/kg intratracheal 1 h after infection, 6 days, ELISA), the “inhibition of TNF-α secretion in whole blood serum” value is given as “approximately 65%”. Moreover, in data set [3] (C. albicans-infected mice, 2 mg/kg intratracheal 1 h after infection, 6 days, Griess reagent), the “NO production in whole blood serum (in words)” value is on record as “did not inhibit NO production”. For the same compound, the “lung histology of infected mice (in words)” value in data set [3] (C. albicans-infected mice, 2 mg/kg intratracheal, H&E and alcian blue staining) is reported as “an increase in the release of mucins”.
As to KWLKKWLKKWLK-NH2 [PS1-6], the MFC in data set [1] (CCARM 14007, 24 h, pH 6) was 16 µM; in data set [1] (CCARM 14007, 24 h, pH 7.2), 16 µM. Further, the “toxicity / cytotoxicity (in words)” value in data set [4] is listed as “significant toxicity”.
Take KWYKKWYKKWYK-NH2 [PS1-2]: the minimal fungicidal concentration (MFC) was 32 µM in data set [1] (CCARM 14007, 24 h, pH 6) and 32 µM in data set [1] (CCARM 14007, 24 h, pH 7.2). Also, the “cells killed (PI-positive cells)” value in the data set with C. albicans CCARM 14007 was 87%. Besides, the “lung histology of non-infected mice (in words)” value in data set [3] (mouse, in vivo, 2 mg/kg) is “did not induce inflammation”. In data set [4], the “toxicity / cytotoxicity (in words)” value was “significantly lower than that of PS1-6”.
Consider RWYRRWYRRWYR-NH2 [PS1-5], for which the MFC in data set [1] (CCARM 14007, 24 h, pH 6) turned out to be 16 µM; in data set [1] (CCARM 14007, 24 h, pH 7.2), 32 µM.
